Laboratory results published in US5624923A, “Tricyclic diazepine vasopressin antagonists and oxytocin antagonists” (priority 1995, dated 1997).
pIC50: −log10 of the molar value. Values joined by “and” are separate entries in the source; they are usually repeats but may differ in a detail not shown here. Equal entries are not always repeated.

Columns and labels:
Rat Hepatic V1 Receptors = target: T1, Rat Hepatic V1 Receptors (Rattus norvegicus, UniProt P30560); test: Binding Assay to Rat Hepatic V1 Receptors; settings: rat liver membranes; read-out: V1 IC50
T1 construct: Rat liver plasma membranes expressing the vasopressin V1 receptor subtypes; from tissue; host or cells: rat liver plasma membranes

Vasopressin V1 = Vasopressin V1 Antagonist Activity in Conscious Rats (vasopressin vasopressor response); type: in vivo, rat; design: Average Change: unit not given here; settings: SHR
Outline: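 Conscious rats are restrained supine, and under local 2% procaine a PE 10/20 cannula is passed through the ventral caudal tail artery into the lower abdominal aorta. The caudal vein is cannulated for intravenous dosing. Blood pressure is recorded with a Statham P23Db transducer, and vasopressin injections are repeated after compound dosing. Percent antagonism is calculated against the pre-drug vasopressor response taken as 100%.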

oxytocin receptors = target: T2, oxytocin receptors (Rattus norvegicus, UniProt P70536); test: Oxytocin Receptor Binding; settings: for pIC50: 1.0 nM [3H]oxytocin; for inhibition at 10 µM: [3H]oxytocin
T2 construct: The uteri are dissected out, cleaned of fat and connective tissues; from tissue; host or cells: uterus of DES-treated female Sprague-Dawley rats
T2 sequence (P70536 1-388): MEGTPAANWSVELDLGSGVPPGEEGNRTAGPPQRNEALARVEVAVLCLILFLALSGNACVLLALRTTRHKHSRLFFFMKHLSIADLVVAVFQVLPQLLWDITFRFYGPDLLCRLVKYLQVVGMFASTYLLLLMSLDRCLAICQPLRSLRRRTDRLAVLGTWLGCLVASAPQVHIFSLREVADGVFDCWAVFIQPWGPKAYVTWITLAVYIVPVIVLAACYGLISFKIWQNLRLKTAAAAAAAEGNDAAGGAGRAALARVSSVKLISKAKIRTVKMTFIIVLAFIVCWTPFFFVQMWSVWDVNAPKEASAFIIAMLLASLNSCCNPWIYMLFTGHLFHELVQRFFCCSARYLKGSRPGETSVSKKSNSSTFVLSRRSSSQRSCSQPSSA
Outline: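 IC50 is the concentration displacing 50% of 1.0 nM [3H]OT, incubated 60 min at 22 °C in pH 7.4 Tris/MgCl2 buffer plus protease inhibitors, then filtered. Receptor source: uterine membranes from rats given 0.3 mg/kg DES i.m. 18 h earlier. 1.0 uM cold OT defined non-specific binding.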

[1] = 3 mg/kg i.v., VAS 0.01 i.u./kg, 30 min
[2] = 3 mg/kg i.v., VAS 0.01 i.u./kg, 60 min
[3] = 3 mg/kg i.v., VAS 0.01 i.u./kg, 90 min
[4] = 3 mg/kg i.v., VAS 0.01 i.u./kg, 120 min
[5] = 3 mg/kg i.v., VAS 0.01 i.u./kg, 180 min
[6] = 3 mg/kg i.v., VAS 0.01 i.u./kg, 240 min
[7] = 3 mg/kg i.v., VAS 0.01 i.u./kg, 300 min
[8] = 3 mg/kg i.v., VAS 0.02 i.u./kg, 30 min
[9] = 3 mg/kg i.v., VAS 0.02 i.u./kg, 60 min
[10] = 3 mg/kg i.v., VAS 0.02 i.u./kg, 90 min
[11] = 3 mg/kg i.v., VAS 0.02 i.u./kg, 120 min
[12] = 3 mg/kg i.v., VAS 0.02 i.u./kg, 300 min
[13] = 10 mg/kg p.o., VAS 0.01 i.u./kg, 30 min
[14] = 10 mg/kg p.o., VAS 0.01 i.u./kg, 60 min
[15] = 10 mg/kg p.o., VAS 0.01 i.u./kg, 90 min
[16] = 10 mg/kg p.o., VAS 0.01 i.u./kg, 120 min
[17] = 10 mg/kg p.o., VAS 0.01 i.u./kg, 180 min
[18] = 10 mg/kg p.o., VAS 0.01 i.u./kg, 240 min
[19] = 10 mg/kg p.o., VAS 0.01 i.u./kg, 300 min
[20] = 10 mg/kg p.o., VAS 0.02 i.u./kg, 30 min
[21] = 10 mg/kg p.o., VAS 0.02 i.u./kg, 60 min
[22] = 10 mg/kg p.o., VAS 0.02 i.u./kg, 300 min
[23] = 30 mg/kg p.o., VAS 0.01 i.u./kg, 30 min
[24] = 30 mg/kg p.o., VAS 0.01 i.u./kg, 60 min
[25] = 30 mg/kg p.o., VAS 0.01 i.u./kg, 90 min
[26] = 30 mg/kg p.o., VAS 0.01 i.u./kg, 120 min
[27] = 30 mg/kg p.o., VAS 0.01 i.u./kg, 180 min
[28] = 30 mg/kg p.o., VAS 0.01 i.u./kg, 240 min
[29] = 30 mg/kg p.o., VAS 0.02 i.u./kg, 30 min
[30] = 30 mg/kg p.o., VAS 0.02 i.u./kg, 60 min
[31] = 30 mg/kg p.o., VAS 0.02 i.u./kg, 90 min
[32] = 30 mg/kg p.o., VAS 0.02 i.u./kg, 120 min
[33] = 30 mg/kg p.o., VAS 0.02 i.u./kg, 180 min
[34] = 30 mg/kg p.o., VAS 0.02 i.u./kg, 240 min
[35] = 10 mg/kg p.o., VAS 0.02 i.u./kg, 90 min
[36] = 10 mg/kg p.o., VAS 0.02 i.u./kg, 120 min
[37] = 10 mg/kg p.o., VAS 0.02 i.u./kg, 180 min
[38] = 10 mg/kg p.o., VAS 0.02 i.u./kg, 240 min

T1 sequence (P30560 whole entry): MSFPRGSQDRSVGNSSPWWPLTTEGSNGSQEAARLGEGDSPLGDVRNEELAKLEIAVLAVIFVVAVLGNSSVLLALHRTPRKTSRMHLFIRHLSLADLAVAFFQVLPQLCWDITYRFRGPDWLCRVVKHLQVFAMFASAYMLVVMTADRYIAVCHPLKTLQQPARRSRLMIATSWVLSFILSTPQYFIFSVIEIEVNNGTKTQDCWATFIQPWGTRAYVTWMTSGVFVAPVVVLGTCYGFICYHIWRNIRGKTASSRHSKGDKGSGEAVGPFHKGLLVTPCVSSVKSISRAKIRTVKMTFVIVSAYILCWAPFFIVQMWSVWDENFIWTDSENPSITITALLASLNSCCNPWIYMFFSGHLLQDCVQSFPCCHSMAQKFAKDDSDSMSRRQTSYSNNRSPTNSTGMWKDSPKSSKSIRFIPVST

Cc1ccccc1C(=O)Nc1ccc(C(=O)N2Cc3cccn3Cc3ccccc32)cc1 [Example 3, 2-Methyl-N-[4-(5H-pyrrolo[2,1-c][1,4]-benzodiazepin-10(11H)-ylcarbonyl)phenyl]benzamide]
pIC50 (Rat Hepatic V1 Receptors): 7.42 | % Inhibition (Vasopressin V1; [1]): 70% and 69% | Average Change (Vasopressin V1; [1]): 15 | % Inhibition (Vasopressin V1; [2]): 75% and 57% | Average Change (Vasopressin V1; [2]): 12.5 and 21 | % Inhibition (Vasopressin V1; [3]): 65% and 76% | Average Change (Vasopressin V1; [3]): 17.5 and 12 | % Inhibition (Vasopressin V1; [4]): 60% and 58% | Average Change (Vasopressin V1; [4]): 20 and 20.5 | % Inhibition (Vasopressin V1; [5]): 40% and 57% | Average Change (Vasopressin V1; [5]): 30 and 21 | % Inhibition (Vasopressin V1; [6]): 20% and 35% | Average Change (Vasopressin V1; [6]): 40 and 32 | % Inhibition (Vasopressin V1; [7]): 61% | Average Change (Vasopressin V1; [7]): 19 | % Inhibition (Vasopressin V1; [8]): 57% | Average Change (Vasopressin V1; [8]): 23.5 and 22 | % Inhibition (Vasopressin V1; [9]): 68% and 44% | Average Change (Vasopressin V1; [9]): 17.5 and 29 | % Inhibition (Vasopressin V1; [10]): 73% and 46% | Average Change (Vasopressin V1; [10]): 15 and 28 | % Inhibition (Vasopressin V1; [11]): 41% and 64% | Average Change (Vasopressin V1; [11]): 32.5 and 18.5 | Average Change (Vasopressin V1; 3 mg/kg i.v., VAS 0.02 i.u./kg, 180 min): 55 and 28.5 | Average Change (Vasopressin V1; 3 mg/kg i.v., VAS 0.02 i.u./kg, 240 min): 52.5 and 27.5 | % Inhibition (Vasopressin V1; [12]): 41% | Average Change (Vasopressin V1; [12]): 30.5 | % Inhibition (Vasopressin V1; [13]): 78% and 71% and 73% | Average Change (Vasopressin V1; [13]): 12.5 and 10 and 11 | % Inhibition (Vasopressin V1; [14]): 70% and 71% | Average Change (Vasopressin V1; [14]): 17.5 and 10.5 and 11.5 | % Inhibition (Vasopressin V1; [15]): 81% and 70% | % Inhibition (Vasopressin V1; [16]): 74% and 59% and 69% | Average Change (Vasopressin V1; [16]): 15 and 14.5 and 12.5 | % Inhibition (Vasopressin V1; [17]): 65% and 77% and 61% | % Inhibition (Vasopressin V1; [18]): 61% and 76% and 51% | % Inhibition (Vasopressin V1; [19]): 59% | Average Change (Vasopressin V1; [19]): 16.5 | % Inhibition (Vasopressin V1; [20]): 65% and 66% and 70% | Average Change (Vasopressin V1; [20]): 17.5 and 18.5 and 16 | % Inhibition (Vasopressin V1; [21]): 55% and 66% and 58% | Average Change (Vasopressin V1; [21]): 22.5 and 18.5 | % Inhibition (Vasopressin V1; [22]): 56% | Average Change (Vasopressin V1; [22]): 24 | % Inhibition (Vasopressin V1; [23]): 72% | Average Change (Vasopressin V1; [23]): 15 | % Inhibition (Vasopressin V1; [24]): 57% | Average Change (Vasopressin V1; [24]): 22.5 | % Inhibition (Vasopressin V1; [25]): 81% | Average Change (Vasopressin V1; [25]): 10 | % Inhibition (Vasopressin V1; [26]): 81% | Average Change (Vasopressin V1; [26]): 10 | % Inhibition (Vasopressin V1; [27]): 81% | Average Change (Vasopressin V1; [27]): 10 | % Inhibition (Vasopressin V1; [28]): 91% | Average Change (Vasopressin V1; [28]): 5 | % Inhibition (Vasopressin V1; [29]): 62% | Average Change (Vasopressin V1; [29]): 20 | % Inhibition (Vasopressin V1; [30]): 57% | Average Change (Vasopressin V1; [30]): 22.5 | % Inhibition (Vasopressin V1; [31]): 62% | Average Change (Vasopressin V1; [31]): 20 | % Inhibition (Vasopressin V1; [32]): 76% | Average Change (Vasopressin V1; [32]): 12.5 | % Inhibition (Vasopressin V1; [33]): 67% | Average Change (Vasopressin V1; [33]): 17.5 | % Inhibition (Vasopressin V1; [34]): 81% | Average Change (Vasopressin V1; [34]): 10 | pIC50 (oxytocin receptors): 6.44 | inhibition at 10 µM (oxytocin receptors): 90%

O=C(Nc1ccc(C(=O)N2Cc3cccn3Cc3ccccc32)cc1)c1cc(Cl)ccc1Cl [Example 4, N-[4-(5H-pyrrolo[2,1-c][1,4]benzodiazepin-10(11H)-ylcarbonyl)phenyl]-2,5-dichlorobenzamide]
pIC50 (Rat Hepatic V1 Receptors): 6.92 | % Inhibition (Vasopressin V1; [13]): 6% | Average Change (Vasopressin V1; [13]): 44.5 | % Inhibition (Vasopressin V1; [14]): 36% | Average Change (Vasopressin V1; [14]): 30.5 | % Inhibition (Vasopressin V1; [15]): 19% | Average Change (Vasopressin V1; [15]): 38.5 | % Inhibition (Vasopressin V1; [16]): 32% | Average Change (Vasopressin V1; [16]): 32.5 | % Inhibition (Vasopressin V1; [17]): 25% | Average Change (Vasopressin V1; [17]): 35.5 | % Inhibition (Vasopressin V1; [18]): 39% | Average Change (Vasopressin V1; [18]): 29 | % Inhibition (Vasopressin V1; [20]): 27% | Average Change (Vasopressin V1; [20]): 36 | % Inhibition (Vasopressin V1; [21]): 10% | Average Change (Vasopressin V1; [21]): 44.5 | % Inhibition (Vasopressin V1; [35]): -5% | Average Change (Vasopressin V1; [35]): 52 | % Inhibition (Vasopressin V1; [36]): -2% | Average Change (Vasopressin V1; [36]): 50.5 | % Inhibition (Vasopressin V1; [37]): 11% | Average Change (Vasopressin V1; [37]): 44 | % Inhibition (Vasopressin V1; [38]): 47% | Average Change (Vasopressin V1; [38]): 26 | pIC50 (oxytocin receptors): 6.18 | inhibition at 10 µM (oxytocin receptors): 98%
